Several values for one entry are separate records, joined by “and”; a condition that tells them apart may be missing. Equal entries are not always repeated. Where two headings read alike, the source gives them in different places.
What was measured:
[1] = system: larvae of the mustard beetle (Phaedon cochleariae); test: Contrasting example: Phaedon cochleariae spray test (PHAECO); assay type: in vivo; conditions: 500 g ai/ha, 7 dat
Experimental: Phaedon cochleariae—Spray Test (PHAECO)
(§1) Solvents: 78.0 parts by weight of acetone • • 1.5 parts by weight of dimethylformamide
(§2) Emulsifier: alkylaryl polyglycol ether
(§3) To produce a suitable active compound preparation, 1 part by weight of active compound is dissolved using the stated parts by weight of solvent and made up with water containing an emulsifier concentration of 1000 ppm until the desired concentration is attained. To produce further test concentrations, the preparation is diluted with emulsifier-containing water.
After the desired period of time, the efficacy in % is determined. 100% means that all beetle larvae were killed; 0% means that no beetle larvae were killed.

[2] = system: green peach aphid (Myzus persicae); test: Contrasting example: Myzus persicae spray test (MYZUPE); assay type: in vivo; conditions: MYZUPE, 100 g ai/ha, 6 dat; for pest or weed control at 100 g/ha: Myzus persicae, 144 h, read-out: % efficacy
Experimental: Myzus persicae—Spray Test (MYZUPE)
as §1, §2, §3
Discs of Chinese cabbage leaves (Brassica pekinensis), infested by all stages of the green peach aphid (Myzus persicae) are sprayed with an active compound preparation of the desired concentration.
After the desired period of time, the efficacy in % is determined. 100% means that all aphids were killed; 0% means that no aphids were killed.

[3] = system: greenhouse red spider mite (Tetranychus urticae); test: Contrasting example: Tetranychus urticae spray test, OP resistant (TETRUR); assay type: in vivo; conditions: 500 g ai/ha, 6 dat
Experimental: Tetranychus urticae—Spray Test; OP Resistant (TETRUR)
as §1, §2, §3
Discs of bean leaves (Phaseolus vulgaris), infested by all stages of the greenhouse red spider mite (Tetranychus urticae) are sprayed with an active compound preparation of the desired concentration.
After the desired period of time, the efficacy in % is determined. 100% means that all spider mites were killed; 0% means that no spider mites were killed.

[4] = log P by HPLC on reversed-phase C18 columns (OECD Guideline 117); assay type: physicochemical; conditions: for logP[a]: method [a]; for logP[b]: method [b]; for chromatographic logP: reversed-phase C18 HPLC column
Method in brief: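 Reversed-phase C18 HPLC per OECD 117, LC-MS with a linear 10% to 95% acetonitrile gradient. Acidic method at pH 2.7 with 0.1% formic acid; neutral method at pH 7.8 with 0.001 M ammonium hydrogencarbonate.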

[5] = system: green peach aphid (Myzus persicae); test: Myzus persicae spray test (bell pepper plants); assay type: in vivo; conditions: after 6 days
Experimental: Myzus persicae—Spray Test
Solvent: 14 parts by weight of dimethylformamide
as §2
as §3, with “water. If the addition of ammonium salts and/or penetrants is required, these are each added in a concentration of 1000 ppm to the formulation solution.” for “water.”
Bell pepper plants (Capsicum annuum) severely infested with the green peach aphid (Myzus persicae) are treated by spraying with the active compound preparation in the desired concentration.
After 6 days, the kill in % is determined. 100% means that all of the aphids have been killed; 0% means that none of the aphids have been killed.

[6] = system: green peach aphid (Myzus persicae); test: Myzus persicae spray test (Chinese cabbage leaf discs); assay type: in vivo; conditions: after 5 or 6 days, Chinese cabbage leaf discs
Method in brief: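 Compound is taken up in acetone/DMF and made up with emulsifier-containing water (1000 ppm), then sprayed onto aphid-infested cabbage leaf discs. After 5 or 6 days, percent kill is determined (100% = all dead, 0% = none).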

[7] = system: greenhouse red spider mite (Tetranychus urticae); test: Tetranychus urticae spray test, OP-resistant (bean leaf discs); assay type: in vivo; conditions: application rate 500 g/ha, after 6 days
Experimental: Tetranychus urticae—Spray Test, OP-Resistant
Solvent: 78.0 parts by weight of acetone • • 1.5 parts by weight of dimethylformamide
as §2, §3
Discs of bean leaves (Phaseolus vulgaris) infested with all stages of the greenhouse red spider mite (Tetranychus urticae) are sprayed with an active compound preparation of the desired concentration.
After 6 days, the efficacy in % is determined. 100% means that all the spider mites had been killed; 0% means that no spider mites had been killed.

[8] = system: southern root-knot nematode (Meloidogyne incognita); test: Meloidogyne incognita test (gall formation on lettuce); assay type: in vivo; conditions: application rate 20 ppm; after 14 days
Experimental: Meloidogyne incognita Test
Solvent: 125.0 parts by weight of acetone
To produce a suitable preparation of active compound, 1 part by weight of active compound is mixed with the stated amount of solvent and the concentrate is diluted with water to the desired concentration.
Vessels are filled with sand, active compound solution, an egg/larvae suspension of the southern root-knot nematode (Meloidogyne incognita) and lettuce seeds. The lettuce seeds germinate and the plants develop. The galls develop on the roots.
After 14 days, the nematicidal efficacy in % is determined by the formation of galls. 100% means that no galls were found; 0% meant that the number of galls on the treated plants corresponds to the untreated control.

[9] = system: larvae of the mustard beetle (Phaedon cochleariae); test: Phaedon cochleariae spray test (Chinese cabbage leaf discs); assay type: in vivo; conditions: application rate 500 g/ha, after 7 days
Experimental: Phaedon cochleariae—Spray Test
as §1, §2, §3
After 7 days, the efficacy in % is determined. 100% means that all beetle larvae were killed; 0% means that no beetle larvae were killed.

Structure (SMILES)	% efficacy [3]	logP[a] [4]	logP[b] [4]	% efficacy [2]	efficacy (kill of aphids) ([5]; application rate 20 ppm)	efficacy (aphids killed) ([6]; application rate 500 g/ha)	further results
O=C(Nc1cccnc1)c1c[nH]cn1 [Example 13]	0%						% efficacy [1]: 0%; pest or weed control at 100 g/ha [2]: 0%
Cc1nc(C(=O)Nc2cccnc2)c[nH]1 [Example 14]	0%						% efficacy [1]: 0%; pest or weed control at 100 g/ha [2]: 0%
Cc1cc(C)nc(Sc2ncc(C(=O)Nc3cccnc3)n2C)n1 [I-A-4]		1.55	1.97	70%	99%		
CCCCCSc1ncc(C(=O)N(C)c2cccnc2)n1C [I-A-6]	90%	2.03	2.33	90%		90%	efficacy (spider mites killed) [7]: 90%
CN(C(=O)c1cnc(SCc2ccccc2)n1C)c1cccnc1 [I-A-7]		1.68	1.91	70%		90%	nematicidal efficacy (formation of galls) [8]: 90%
CN(C(=O)c1c(Cl)nc(Sc2ncccn2)n1C)c1cccnc1 [I-A-15]		1.24	1.34				% efficacy [1]: 83%; efficacy (beetle larvae killed) [9]: 83%
COCCCSc1ncc(C(=O)N(C)c2cccnc2)n1C [I-A-20]		1.04	1.35		99%		
CC(C)=CCSc1ncc(C(=O)N(C)c2cccnc2)n1C [I-A-35]		1.61	1.96				nematicidal efficacy (formation of galls) [8]: 90%
CON=C(C)CSc1ncc(C(=O)N(C)c2cccnc2)n1C [I-A-39]	70%	1.13	1.37 and 1.45			90%	
CCN(C(=O)c1cnc(SC)n1C)c1cccnc1 [I-A-44]		0.80	1.30		100%		
CN(C(=O)c1cnc(Sc2ccc(Cl)cc2)n1C)c1cccnc1 [I-A-57]		2.02	2.14		99%		
CN(C(=O)c1cnc(Sc2cccc(Cl)c2)n1C)c1cccnc1 [I-A-66]		1.97	2.11				efficacy (kill of aphids) ([5]; application rate 100 ppm): 99%
CN(C(=O)c1cnc(S(=O)(=O)c2cc(Cl)cc(Cl)c2)n1C)c1cccnc1 [I-A-78]	90%	2.37	2.53	90%			efficacy (aphids killed) ([6]; application rate 100 g/ha): 90%; efficacy (spider mites killed) [7]: 90%
CN(C(=O)c1cnc([S+]([O-])c2ccc(Cl)c(C(F)(F)F)c2)n1C)c1cccnc1 (stereo not drawn) [I-A-79]		2.16	2.29			90%	% efficacy [1]: 100%; efficacy (beetle larvae killed) [9]: 100%
CN(C(=O)c1cnc(S(=O)(=O)c2ccc(Cl)c(C(F)(F)F)c2)n1C)c1cccnc1 [I-A-80]		2.56	2.72				% efficacy [1]: 100%; efficacy (beetle larvae killed) [9]: 100%
CN(C(=O)c1cnc([S+]([O-])c2ccc([N+](=O)[O-])cc2)n1C)c1cccnc1 (stereo not drawn) [I-A-89]		1.20	1.38	70%	99%		
COc1ccc([S+]([O-])c2ncc(C(=O)N(C)c3cccnc3)n2C)cc1 (stereo not drawn) [I-A-93]		1.12	1.28	70%	95%		
CN(C(=O)c1cnc(S(=O)(=O)c2ncccn2)n1C)c1cccnc1 [I-A-99]		0.66	0.87	70%	100%		
CN(C(=O)c1cnc(Sc2ncc(C(F)(F)F)cn2)n1C)c1cccnc1 [I-A-105]	90%	1.64	1.73	100%		100%	efficacy (spider mites killed) [7]: 90%
CN(C(=O)c1cnc(Sc2ncc(F)cn2)n1C)c1cccnc1 [I-A-107]	70%	1.04	1.20	90%		90%	
CN(C(=O)c1cnc(Sc2ncccc2C(F)(F)F)n1C)c1cccnc1 [I-A-110]	70%	1.77	1.93	100%		100%	
CN(C(=O)c1cnc(SCc2c(Cl)cccc2Cl)n1C)c1cccnc1 [I-A-125]	70%	2.09	2.28	70%		90%	
CN(C(=O)c1cn(C)c(Sc2ncccn2)n1)c1cccnc1 [I-B-1]							pest or weed control at 500 g/ha ([6]; Myzus persicae, foliar, application rate 500 g/ha, read-out: efficacy (aphids killed)): 100%; chromatographic logP ([4]; pH 2.7, acidic range, pH 2.7, 0.1% aqueous formic acid / acetonitrile, read-out: log P[a]): 0.42; chromatographic logP ([4]; pH 7.8, neutral range, pH 7.8, 0.001 molar aqueous ammonium hydrogencarbonate / acetonitrile, read-out: log P[n]): 0.83; pest or weed control at 100 g/ha [2]: 90%

Reference: patent US10368545B2, “Substituted 2-thioimidazolylcarboxamides as pesticides” (BAYER CROPSCIENCE AKTIENGESELLSCHAFT, priority 2015, dated 2019)
